Experiments:
Human Cot = Human Cot (Homo sapiens (Human), UniProt P41279); test: High Throughput Cot Biochemical Assay (KinEASE TR-FRET); conditions: recombinant human Cot catalytic domain, 400 μM ATP
Description: Example 24: High Throughput Cot Biochemical Assay
Human Cot enzyme activity was measured using KinEASE (Cisbio), a time-resolved fluorescence resonance energy transfer (TR-FRET) immunoassay. In this assay, Cot-catalyzes the phosporylation of a XL665-labeled peptide substrate. Europium conjugated […] specific antibody binds the resulting phosphorylated peptide. Formation of phosphorylated peptide is quantified by TR-FRET with Europium as the donor and XL665 the acceptor in a 2-step endpoint assay. Purified recombinant human Cot catalytic domain (30-397 amino acids) was purchased from Carna Biosciences. In brief, test compounds serially diluted in DMSO were delivered into Proxy white, low volume, 384 well plates using the Echo 550 acoustic liquid dispenser (Labcyte®). Cot enzyme and substrates were dispensed into assay plates using a Multi-Flo (Bio-Tek Instruments). The standard 5 μL reaction mixture contained 400 μM ATP, 1 μM STK3 peptide, 5 nM of Cot in reaction buffer (10 mM MOPS, pH 7.0, 0.02% NaN3, 0.5 mg/mL BSA, 10 mM MgOAc, 1 mM DTT, 0.025% NP-40, 1.5% glycerol) and 0.1% DMSO. After 2.5 hrs of incubation at room temperature, 5 μL of Stop and Detect Solution (1:200 Europium Cryptate labeled anti-phosphorylated peptide antibody solution and 125 nM strepavidin-XL665 Tracer in a 50 mM Hepes pH 7.0 detection buffer containing sufficient EDTA) was added. The plate was then further incubated for 120 minutes at room temperature and read using an Envision 2103 Multilabeled reader (PerkinElmer) with excitation/emission/FRET emission at 340 nm/615 nm/665 nm, respectively. Fluorescence intensities at 615 nm and 665 nm emission wavelengths were expressed as a ratio (665 nm/615 nm).

TNFα = test: Cot Monocyte TNFα Cell Based Assay; conditions: LPS-stimulated cryopreserved human monocytes, TNFα by TR-FRET
Description: Example 23: Cot Monocyte TNFα Cell Based Assay
Cryopreserved human monocytes (Stem Cell Technologies) were thawed, diluted in RPMI with Glutamax (10 mM HEPES, 1× Pen-Strep, 55 μM β-mercaptoethanol, 1 mM Sodium pyruvate) media containing 10% FBS to 0.125×10^6 cells/ml and recovered at 37° C. for 2 hours. The cell suspension was then plated at a density of 5,000 cells/well onto black 384 well Greiner clear bottom plates. Plates were pre-spotted with test compounds and serially diluted in DMSO where 200 nL/well were delivered using the Echo 550 acoustic liquid dispenser (Labcyte®) for a final DMSO concentration of 0.5%. Plated cells were treated with compound for 1 hour at 37° C. Cells were then stimulated with 50 μg/ml of LPS (Sigma) excluding outside columns of plate used for unstimulated cell control wells. Cells were incubated for an additional 4 hours at 37° C. Cells were then spun out of the media and 5 μl of sample were taken and analyzed for total TNFα content using the TR-FRET Human TNFα detection system (CisBio). This system utilizes two labeled antibodies (cryptate and XL665) that bind to two different epitopes of the TNFα molecule and produce FRET signal proportional to the concentration of TNFα in the sample. Detection antibodies are mixed 50:50 and 5 μL were dispensed into each well. Plates were covered with clear seals and incubated at room temp overnight. The following morning plates were read using an Envision 2103 Multilabeled reader (PerkinElmer) with excitation/emission/FRET emission at 340 nm/615 nm/665 nm, respectively. Fluorescence intensities at 615 nm and 665 nm emission wavelengths were expressed as a ratio (665 nm/615 nm). Percent of control was calculated as follows: % Control=100×(RatioSample−Ratio0% stimulation)/(Ratio100% Stimulation−Ratio0% Stimulation) where unstimulated cells (0% stimulation) were the negative control and stimulated cells (100% stimulation) were used as the positive control.

Human Cot, sequence (P41279 30-397): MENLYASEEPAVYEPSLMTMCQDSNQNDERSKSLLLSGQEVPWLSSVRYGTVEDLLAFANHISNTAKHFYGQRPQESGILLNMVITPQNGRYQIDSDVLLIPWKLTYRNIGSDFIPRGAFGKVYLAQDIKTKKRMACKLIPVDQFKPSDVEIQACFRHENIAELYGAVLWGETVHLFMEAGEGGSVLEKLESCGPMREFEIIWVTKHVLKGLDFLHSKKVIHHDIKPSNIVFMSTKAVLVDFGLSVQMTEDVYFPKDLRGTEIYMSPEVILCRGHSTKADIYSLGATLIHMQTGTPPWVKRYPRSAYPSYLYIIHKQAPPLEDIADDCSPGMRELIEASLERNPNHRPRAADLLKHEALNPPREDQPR

Structure (SMILES) | IC50 (Human Cot) [nM] | EC50 (TNFα) [nM]
[2H][C@](Nc1ccc2ncnc(NCC(C)(C)C)c2c1)(c1ccc(F)cc1)c1cn(C2CC2)nn1 [I-1, (S)-N^6-((1-cyclopropyl-1H-1,2,3-triazol-4-yl)(4-fluorophenyl)methyl-d)-N^4-neopentylquinazoline-4,6-diamine] | 5 | 101
CC(C)(C)CNc1ncnc2ccc(N[C@@H](c3ccc(F)cc3)c3cn(C4CC4)nn3)cc12 [I-2, (S)-N^6-((1-cyclopropyl-1H-1,2,3-triazol-4-yl)(4-fluorophenyl)methyl)-N^4-neopentylquinazoline-4,6-diamine] | 7.7 | 85
[2H][C@](Nc1ccc2ncnc(NCC3(C)CCOCC3)c2c1)(c1ccc(F)cc1)c1cn(C2CC2)nn1 [I-3, (S)-N^6-((1-cyclopropyl-1H-1,2,3-triazol-4-yl)(4-fluorophenyl)methyl-d)-N^4-((4-methyltetrahydro-2H-pyran-4-yl)methyl)quinazoline-4,6-diamine] | 11 | 296
[2H][C@](Nc1ccc2ncnc(N[C@H](CC)c3ccccc3)c2c1)(c1ccc(F)cc1)c1cn(C2CC2)nn1 [I-4, N^6-((S)-(1-cyclopropyl-1H-1,2,3-triazol-4-yl)(4-fluorophenyl)methyl-d)-N^4-((R)-1-phenylpropyl) quinazoline-4,6-diamine] | 43 | 796
[2H]C(Nc1ccc2ncnc(NC(CC#N)c3ccccc3)c2c1)(c1ccc(F)cc1)c1cn(C2CC2)nn1 [I-5, 3-((6-(((S)-(1-cyclopropyl-1H-1,2,3-triazol-4-yl)(4-fluorophenyl)methyl-d)amino)quinazolin-4-yl)amino)-3-phenylpropanenitrile] | 53 | 2500
[2H][C@](c1ccc(F)cc1)(c1cn(C2CC2)nn1)N(CC)c1ccc2ncnc(NCC(C)(C)C)c2c1 [I-6, (S)-N6-((1-cyclopropyl-1H-1,2,3-triazol-4-yl)(4-fluorophenyl)methyl-d)-N6-ethyl-N4-neopentylquinazoline-4,6-diamine] | 276 | 4230
[2H][C@](Nc1ccc2ncnc(NCC(C)(C)C)c2c1)(c1cccc(C#N)c1)c1cn(C2CC2)nn1 [I-7, (S)-3-((1-cyclopropyl-1H-1,2,3-triazol-4-yl)((4-(neopentylamino)quinazolin-6-yl)amino)methyl-d)benzonitrile] | 2.6 | 102
CC(C)(C)CNc1ncnc2ccc(N[C@H](c3cn(C4CC4)nn3)c3ccccc3Cl)cc12 [I-8, (S)-N^6-((2-chlorophenyl)(1-cyclopropyl-1H-1,2,3-triazol-4-yl)methyl)-N^4-neopentylquinazoline-4,6-diamine] | 13 | 169
[2H][C@@](Nc1cc(Cl)c2ncnc(NCC(C)(C)C)c2c1)(c1cn(C2CC2)nn1)c1ccccc1Cl [I-9, (S)-8-chloro-N6-((2-chlorophenyl)(1-cyclopropyl-1H-1,2,3-triazol-4-yl)methyl-d)-N4-neopentylquinazoline-4,6-diamine] | 4.8 | 86
[2H][C@@](Nc1cc(Cl)c2ncnc(NCC(C)(C)C)c2c1)(c1cn(CC(=O)O)nn1)c1ccccc1Cl [I-10, (S)-2-(4-(((8-chloro-4-(neopentylamino)quinazolin-6-yl)amino)(2-chlorophenyl)methyl-d)-1H-1,2,3-triazol-1-yl)acetic acid] | 13 | > 1000
[2H][C@](Nc1cc(Cl)c2ncnc(N[C@H](CCC#N)c3ccccc3)c2c1)(c1ccc(F)cc1)c1cn(C2CC2)nn1 [I-11, (R)-4-((8-chloro-6-(((S)-(1-cyclopropyl-1H-1,2,3-triazol-4-yl)(4-fluorophenyl)methyl-d)amino)quinazolin-4-yl)amino)-4-phenylbutanenitrile] | 46 | 671
[2H][C@](Nc1cc(Cl)c2ncnc(N[C@H](CCC#N)c3ccccc3)c2c1)(c1ccc(F)cc1)c1cn(C2(C(F)(F)F)CC2)nn1 [I-12, (R)-4-((8-chloro-6-(((S)-(4-fluorophenyl)(1-(1-(trifluoromethyl)cyclopropyl)-1H-1,2,3-triazol-4-yl)methyl-d)amino)quinazolin-4-yl)amino)-4-phenylbutanenitrile] | 137 | > 1000
[2H][C@](Nc1cc(C#N)c2ncnc(NCC(C)(C)C)c2c1)(c1ccc(F)cc1)c1cn(C2CC2)nn1 [I-14, (S)-6-(((1-cyclopropyl-1H-1,2,3-triazol-4-yl)(4-fluorophenyl)methyl-d)amino)-4-(neopentylamino) quinazoline-8-carbonitrile] | 2.1 | 42
[2H][C@](Nc1cc(Br)c2ncnc(NCC(C)(C)C)c2c1)(c1ccc(F)cc1)c1cn(C2CC2)nn1 [I-15, (S)-8-bromo-N6-((1-cyclopropyl-1H-1,2,3-triazol-4-yl)(4-fluorophenyl)methyl-d)-N4-neopentylquinazoline-4,6-diamine] | 2.6 | 82
[2H][C@](Nc1cc(Cl)c2ncnc(NCC(C)(C)C)c2c1)(c1ccc(F)cc1)c1cn(C2(CF)CC2)nn1 [I-16, (S)-8-chloro-N^6-((1-(1-(fluoromethyl)cyclopropyl)-1H-1,2,3-triazol-4-yl)(4-fluorophenyl)methyl-d)-N^4-neopentylquinazoline-4,6-diamine] | 3.1 | 46
Cc1c(C#N)cccc1[C@H](Nc1cc(Cl)c2ncnc(NCC(C)(C)C)c2c1)c1cn(C2(C(F)F)CC2)nn1 [I-23, (S)-3-(((8-chloro-4-(neopentylamino)quinazolin-6-yl)amino)(1-(1-(difluoromethyl)cyclopropyl)-1H-1,2,3-triazol-4-yl)methyl)-2-methylbenzonitrile] | 1.6 | 

The next lines start with the values.

IC50 (Human Cot) [nM] | EC50 (TNFα) [nM] | Structure (SMILES)
8480 |  | O=C(OCc1ccccc1)N1CCC(n2cc(C(Nc3cc(Cl)c4ncnc(Nc5ccc(F)c(Cl)c5)c4c3)c3ccccc3)nn2)CC1 (stereo not shown) [II-1, benzyl 4-(4-(((8-chloro-4-((3-chloro-4-fluorophenyl)amino)quinazolin-6-yl)amino)(phenyl)methyl)-1H-1,2,3-triazol-1-yl)piperidine-1-carboxylate]
28 |  | Fc1ccc(Nc2ncnc3c(Cl)cc(NC(c4ccccc4)c4cn(C5CCNCC5)nn4)cc23)cc1Cl (stereo not shown) [II-2, 8-chloro-N^4-(3-chloro-4-fluorophenyl)-N^6-(phenyl(1-(piperidin-4-yl)-1H-1,2,3-triazol-4-yl)methyl) quinazoline-4,6-diamine]
19 |  | CCN1CCC(n2cc(C(Nc3cc(Cl)c4ncnc(Nc5ccc(F)c(Cl)c5)c4c3)c3ccccc3)nn2)CC1 (stereo not shown) [II-3, 8-chloro-N^4-(3-chloro-4-fluorophenyl)-N^6-((1-(1-ethylpiperidin-4-yl)-1H-1,2,3-triazol-4-yl)(phenyl)methyl) quinazoline-4,6-diamine]
72 |  | CC(C)(C)N1CCC(n2cc([C@@H](Nc3ccc4ncnc(Nc5ccc(F)c(Cl)c5)c4c3)c3ccc(Cl)cc3)nn2)CC1 [II-5, (S)-N^6-((1-(1-(tert-butyl)piperidin-4-yl)-1H-1,2,3-triazol-4-yl)(4-chlorophenyl)methyl)-N^4-(3-chloro-4-fluorophenyl) quinazoline-4,6-diamine]
49 |  | Fc1ccc(Nc2ncnc3ccc(N[C@@H](c4ccc(Cl)cc4)c4cn(C5CCNCC5)nn4)cc23)cc1Cl [II-6, (S)-N^4-(3-chloro-4-fluorophenyl)-N^6-((4-chlorophenyl)(1-(piperidin-4-yl)-1H-1,2,3-triazol-4-yl)methyl) quinazoline-4,6-diamine]
284 |  | Fc1ccc(Nc2ncnc3ccc(N[C@@H](c4ccc(Cl)cc4)c4cn(C5COC5)nn4)cc23)cc1Cl [II-7, (S)-N^4-(3-chloro-4-fluorophenyl)-N^6-((4-chlorophenyl)(1-(oxetan-3-yl)-1H-1,2,3-triazol-4-yl)methyl) quinazoline-4,6-diamine]

From patent US10059695B2, “Cot modulators and methods of use thereof” (Gilead Sciences, Inc., priority 2016, dated 2018)
